What was measured:
CD73 [1] = biological target: T1, CD73 (Homo sapiens (Human), UniProt P21589); assay type: biochemical; settings: 1 mM NaH2PO4 in enzyme buffer, CD73 0.3 nM, AMP 15 uM
CD73 [2] = biological target: T1, CD73; assay: MDA-MB-231 Cell Based CD73 Activity Assay (DMEM); settings: MDA-MB-231-GFP cells, DMEM medium with 10% human plasma, 200 uM AMP
Method: MDA-MB-231 Cell Based CD73 Activity Assay (DMEM) MDA-MB-231-GFP cells were seeded in 384-well plates (Greiner 781946) at a density of 3000 cells per well in 50 μL of DMEM medium with 10% HP (human plasma). Cells were plated into assay plate with compounds pre-spotted, for an overnight compound treatment. 50 uL of 400 uM AMP (final concentration will be 200 uM) was added using Bio-tek dispenser. Plates were incubated for 100 mins. […] The samples were analyzed using Rapid fire.

T1 sequence (P21589 27-574): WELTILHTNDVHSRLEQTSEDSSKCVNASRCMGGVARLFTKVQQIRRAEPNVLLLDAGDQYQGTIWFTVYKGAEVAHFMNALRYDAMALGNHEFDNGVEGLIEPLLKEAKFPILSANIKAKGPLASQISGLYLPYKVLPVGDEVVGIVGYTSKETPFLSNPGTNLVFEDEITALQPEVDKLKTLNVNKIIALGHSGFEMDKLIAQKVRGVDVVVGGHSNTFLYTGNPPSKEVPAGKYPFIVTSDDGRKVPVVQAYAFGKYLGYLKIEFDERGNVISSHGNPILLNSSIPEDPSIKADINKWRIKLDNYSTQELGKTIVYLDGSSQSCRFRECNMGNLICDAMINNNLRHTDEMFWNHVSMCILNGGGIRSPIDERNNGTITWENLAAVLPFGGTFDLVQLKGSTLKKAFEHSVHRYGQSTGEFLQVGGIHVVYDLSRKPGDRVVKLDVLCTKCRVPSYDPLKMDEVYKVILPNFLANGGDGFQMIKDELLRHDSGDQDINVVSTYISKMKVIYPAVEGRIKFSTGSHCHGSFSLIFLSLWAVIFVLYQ

Row | Structure (SMILES) | IC50 (CD73 [1]) [nM] | EC50 (CD73 [2]) [nM]
1 | O=C(c1cn2nc(-c3c[nH]c(=O)[nH]c3=O)cc([C@H]3C[C@@H]3c3ccc(F)cc3)c2n1)N1CC(F)(F)C1 (racemic) [Example 198, 5-[2-(3,3-difluoroazetidine-1-carbonyl)-8-[(1S,2S)-2-(4-fluorophenyl)cyclopropyl]imidazo[1,2-b]pyridazin-6-yl]-1H-pyrimidine-2,4-dione] | 85.2 | 191
2 | O=C(c1cn2nc(-c3c[nH]c(=O)[nH]c3=O)cc([C@H]3C[C@@H]3c3ccc(F)cc3)c2n1)N1CCC(F)(F)C1 (racemic) [Example 199, 5-[2-(3,3-difluoropyrrolidine-1-carbonyl)-8-[(1S,2S)-2-(4-fluorophenyl)cyclopropyl]imidazo[1,2-b]pyridazin-6-yl]-1H-pyrimidine-2,4-dione] | > 250 | 755
3 | O=C1N(CC(F)(F)F)c2cc([C@H]3C[C@@H]3c3cc(-c4c[nH]c(=O)[nH]c4=O)nn4ccnc34)ccc2C12CC2 (racemic) [Example 382, 5-(8-((1S,2S)-2-(2′-oxo-1′-(2,2,2-trifluoroethyl)spiro[cyclopropane-1,3′-indolin]-6′-yl)cyclopropyl)imidazo[1,2-b]pyridazin-6-yl)pyrimidine-2,4(1H,3H)-dione] | 1.63 | 0.13
4 | O=c1[nH]cc(-c2cc([C@H]3C[C@@H]3c3ccc4cnn(-c5ccc(C(F)(F)F)cn5)c4c3)c3nccn3n2)c(=O)[nH]1 (racemic) [Example 383, 5-(8-((1S,2S)-2-(1-(5-(trifluoromethyl)pyridin-2-yl)-1H-indazol-6-yl)cyclopropyl)imidazo[1,2-b]pyridazin-6-yl)pyrimidine-2,4(1H,3H)-dione] | 1.83 | 49.3
5 | CC(C)c1nn(CC(F)(F)F)c2cc([C@H]3C[C@@H]3c3cc(-c4c[nH]c(=O)[nH]c4=O)nn4ccnc34)ccc12 (racemic) [Example 396, 5-(8-((1S,2S)-2-(3-isopropyl-1-(2,2,2-trifluoroethyl)-1H-indazol-6-yl)cyclopropyl)imidazo[1,2-b]pyridazin-6-yl)pyrimidine-2,4(1H,3H)-dione] | 2 | 0.24

The remaining lines, values ahead:

Row | IC50 (CD73 [1]) [nM] | EC50 (CD73 [2]) [nM] | Structure (SMILES)
6 | 3.34 | 7.61 | O=c1[nH]cc(-c2cc([C@H]3C[C@@H]3c3ccc(C(F)(F)F)cn3)c3nccn3n2)c(=O)[nH]1 (racemic) [Example 149, 5-(8-((1S,2S)-2-(5-(trifluoromethyl)pyridin-2-yl)cyclopropyl)imidazo[1,2-b]pyridazin-6-yl)pyrimidine-2,4(1H,3H)-dione and 5-(8-((1R,2R)-2-(5-(trifluoromethyl)pyridin-2-yl)cyclopropyl)imidazo[1,2-b]pyridazin-6-yl)pyrimidine-2,4(1H,3H)-dione]
7 | 3.45 | 17.5 | O=c1[nH]cc(-c2cc([C@H]3C[C@@H]3c3ccc(C(F)(F)F)nc3)c3nccn3n2)c(=O)[nH]1 (racemic) [Example 152, 5-(8-((1S,2S)-2-(6-(trifluoromethyl)pyridin-3-yl)cyclopropyl)imidazo[1,2-b]pyridazin-6-yl)pyrimidine-2,4(1H,3H)-dione and 5-(8-((1R,2R)-2-(6-(trifluoromethyl)pyridin-3-yl)cyclopropyl)imidazo[1,2-b]pyridazin-6-yl)pyrimidine-2,4(1H,3H)-dione]
8 | 1.79 | 50 | O=c1[nH]cc(-c2cc([C@H]3C[C@@H]3c3ccc4onc(C(F)(F)F)c4c3)c3nccn3n2)c(=O)[nH]1 (racemic) [Example 327, 5-(8-((1S,2S)-2-(3-(trifluoromethyl)benzo[d]isoxazol-5-yl)cyclopropyl)imidazo[1,2-b]pyridazin-6-yl)pyrimidine-2,4(1H,3H)-dione]
9 | 2.83 | 11.2 | N#Cc1ccc([C@H]2C[C@@H]2c2cc(-c3c[nH]c(=O)[nH]c3=O)nn3c(F)cnc23)cn1 (racemic) [Example 375, 5-((1S,2S)-2-(6-(2,4-dioxo-1,2,3,4-tetrahydropyrimidin-5-yl)-3-fluoroimidazo[1,2-b]pyridazin-8-yl)cyclopropyl)picolinonitrile]

Reference: patent US20240043427A1 (Gilead Sciences, Inc., priority 2020, published 2024)
